Reference: PubChem BioAssay (NCI)
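Interpolation was linear, between the two tested concentrations surrounding the appropriate level; five concentrations were tested over 48 hours in 96-well plates. At the TGI there is no net growth.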

Assays:
Assay in all cases: inhibition of tumour cell growth, NCI panel, 48 h
786-0 renal = test system: 786-0 renal
A549 NSCLC = test system: A549 NSCLC
ACHN renal = test system: ACHN renal
CCRF-CEM leukemia = test system: CCRF-CEM leukemia
EKVX NSCLC = test system: EKVX NSCLC
HCT-15 colon = test system: HCT-15 colon
MDA-MB-231 breast = test system: MDA-MB-231 breast
MDA-N = test system: MDA-N
OVCAR-4 ovarian = test system: OVCAR-4 ovarian
RPMI-8226 leukemia = test system: RPMI-8226 leukemia
RXF 393 renal = test system: RXF 393 renal
SF-295 CNS = test system: SF-295 CNS
SK-MEL-5 melanoma = test system: SK-MEL-5 melanoma
SN12C renal = test system: SN12C renal
SR leukemia = test system: SR leukemia
UO-31 renal = test system: UO-31 renal
SK-MEL-2 melanoma = test system: SK-MEL-2 melanoma
SK-MEL-28 melanoma = test system: SK-MEL-28 melanoma

Structure (SMILES) | TGI (786-0 renal) [µM] | TGI (A549 NSCLC) [µM] | TGI (ACHN renal) [µM] | TGI (CCRF-CEM leukemia) [µM] | TGI (EKVX NSCLC) [µM] | TGI (HCT-15 colon) [µM] | TGI (MDA-MB-231 breast) [µM] | TGI (MDA-N) [µM] | TGI (OVCAR-4 ovarian) [µM] | TGI (RPMI-8226 leukemia) [µM] | TGI (RXF 393 renal) [µM] | TGI (SF-295 CNS) [µM] | TGI (SK-MEL-5 melanoma) [µM] | TGI (SN12C renal) [µM] | TGI (SR leukemia) [µM] | TGI (UO-31 renal) [µM] | TGI (SK-MEL-2 melanoma) [µM] | TGI (SK-MEL-28 melanoma) [µM]
C1COCCOP2(N3CC3)=NP(N3CC3)(=NP(N3CC3)(N3CC3)=N2)OCCOCCO1 (centres undefined) | > 100 | > 100 | > 100 | > 100 | > 100 | > 100 | > 100 | > 100 | > 100 | > 100 | > 100 | > 100 | > 100 | > 100 | > 100 | > 100 | – | –
Cc1cccc2c(=O)c3c(O)cc4c(c3n(C)c12)C=CC(C)(C)O4 | > 100 | > 100 | > 100 | > 100 | > 100 | > 100 | > 100 | > 100 | > 100 | 66.5 | 38 | > 100 | > 100 | > 100 | 54.6 | – | > 100 | > 100
Cc1ccc(S(=O)(=O)N/N=C2\CC3C4CCC3C2C4)cc1 (centres undefined) | > 100 | > 100 | > 100 | > 100 | > 100 | > 100 | > 100 | > 100 | > 100 | – | > 100 | > 100 | > 100 | > 100 | > 100 | > 100 | > 100 | > 100
Cc1ccc(C)c(C(=N)c2ccccc2Cc2ccccc2)c1 | 32.2 | > 100 | 35.7 | – | 56.8 | > 100 | 64.2 | 69.4 | 85.8 | 35.4 | 34.9 | 56 | 30.5 | 32.2 | 41.7 | > 100 | 32 | 80.1
CCCC(=O)Oc1cc(OC(=O)CCC)c2c(C)cc(=O)oc2c1 | > 100 | > 100 | > 100 | > 100 | > 100 | > 100 | > 100 | > 100 | > 100 | > 100 | – | > 100 | > 100 | > 100 | 76.9 | > 100 | > 100 | > 100
N=c1oc2ccc(Cl)cc2cc1C(=O)NC1CCCCC1 | > 100 | > 100 | > 100 | > 100 | – | > 100 | > 100 | > 100 | > 100 | > 100 | > 100 | – | > 100 | > 100 | > 100 | – | > 100 | > 100
O=C1Cc2c([nH]c3cc(Br)ccc23)-c2ccccc2N1 | > 100 | 64.1 | 64.7 | 20.2 | – | 25.2 | > 100 | > 100 | 38.2 | – | 12.2 | 61.3 | 38.9 | 76.4 | > 100 | 38.1 | – | > 100
OCC1(CNc2cc(Cl)ncn2)CCC1 | > 100 | > 100 | > 100 | > 100 | > 100 | > 100 | > 100 | > 100 | > 100 | > 100 | – | > 100 | > 100 | > 100 | > 100 | > 100 | > 100 | > 100
Cc1ccc(NCc2nnc3c(-c4ccccc4)nc4ccccc4n23)cc1 | > 100 | > 100 | > 100 | > 100 | 84.1 | > 100 | > 100 | > 100 | > 100 | – | > 100 | > 100 | 30.4 | > 100 | > 100 | – | 65.5 | > 100
O=c1c2cc([N+](=O)[O-])cnc2sn1-c1ccc(Br)cc1 | > 100 | > 100 | > 100 | 66.6 | > 100 | > 100 | 73.4 | > 100 | 82 | > 100 | – | 47.1 | > 100 | > 100 | 60.7 | > 100 | 85.5 | > 100
CC1(C)O[C@@H](CP(c2ccc3ccccc3c2)c2ccc3ccccc3c2)[C@H](CP(c2ccc3ccccc3c2)c2ccc3ccccc3c2)O1 | > 100 | > 100 | > 100 | > 100 | > 100 | > 100 | > 100 | > 100 | > 100 | – | > 100 | > 100 | > 100 | > 100 | > 100 | > 100 | > 100 | > 100
O=C(O)CCCN=C(C(=NCCCC(=O)O)c1ccccc1)c1ccccc1 | > 100 | > 100 | > 100 | – | > 100 | > 100 | > 100 | > 100 | > 100 | > 100 | > 100 | > 100 | – | > 100 | > 100 | > 100 | > 100 | > 100
O=c1cc(-c2cccc(Br)c2)[nH]c2cc3c(cc12)OCO3 | 12.9 | 25.2 | 24.4 | > 100 | – | > 77.6 | 23.1 | 2 | > 100 | > 100 | 14.3 | 6.52 | 9.73 | > 55.9 | > 100 | 37.9 | 6.67 | > 100
CC(C)[Si](OC1=CCC[C@H]2NC(=O)[C@@H](Cc3ccc([N+](=O)[O-])cc3)[C@@]12C)(C(C)C)C(C)C | 17.8 | 5.17 | 4.28 | 8.19 | 18.7 | 15.6 | 28.1 | 18 | 17.1 | – | 4.72 | 16.9 | 5.58 | 3.8 | 8.02 | 26.4 | 28 | –
C[Si](C)(C)C#CCOC=C1CC1 | > 100 | > 100 | > 100 | > 100 | > 100 | > 100 | > 100 | > 100 | > 100 | – | > 100 | > 100 | > 100 | > 100 | > 100 | > 100 | > 100 | > 100
NC(=O)N=Nc1c2ccccc2n2[nH]ccc12 | > 100 | > 100 | > 100 | > 100 | > 100 | > 100 | > 100 | > 100 | > 100 | – | 59.4 | > 100 | > 100 | > 100 | > 100 | – | > 100 | > 100
COc1cccc(-c2cc(=O)c3cc(N4CCCC4)ccc3[nH]2)c1 | > 10 | > 10 | > 10 | > 10 | > 10 | 0.00647 | 0.598 | < 0.001 | > 10 | 2.44 | – | < 0.001 | 0.00747 | > 10 | < 0.001 | > 10 | – | > 10
CCO/N=C(/CC)c1ccc(Br)s1 | > 100 | > 100 | > 100 | > 100 | > 100 | > 100 | > 100 | > 100 | > 100 | – | > 100 | > 100 | > 100 | > 100 | > 100 | > 100 | > 100 | > 100
N#CCCN(CCC#N)c1ccc(/C=C2\N=C(c3ccccc3)N(c3ccccc3)C2=O)cc1 | > 100 | > 100 | > 100 | > 100 | > 100 | > 100 | > 100 | > 100 | > 100 | > 100 | > 100 | > 100 | > 100 | > 100 | – | > 100 | > 100 | > 100
COc1cc(N(CCC#N)CCC#N)ccc1/C(N=Nc1cccc(C)c1)=N\NC(=O)c1ccc(C)cc1 | > 100 | > 100 | 63 | > 100 | > 100 | > 100 | > 100 | > 100 | > 100 | > 100 | > 100 | > 100 | > 100 | > 100 | – | > 100 | > 100 | > 100
C[C@]12CC[C@H]3[C@@H](CCC4=CC(=O)CC[C@@]43C)[C@@H]1CC[C@@H]2OC(=O)c1cccc2c(=O)c3ccccc3[nH]c12 | 38.6 | > 100 | > 100 | > 100 | > 100 | > 100 | > 100 | > 100 | > 100 | 87.7 | > 100 | > 100 | > 100 | > 100 | – | > 100 | > 100 | > 100
CCOC(=O)c1c[nH]c2cc3c(cc2c1=O)CCS3 | > 100 | > 100 | > 100 | > 100 | > 100 | > 100 | > 100 | > 100 | > 100 | > 100 | > 100 | > 100 | > 100 | > 100 | – | > 100 | > 100 | > 100
